Columns and labels:
human TLR7 = molecular target: T1, human TLR7 (Homo sapiens, UniProt Q9NYK1); assay: Human TLR7 cellular reporter assay (HEK293, NFkB-luc); type: cell-based; settings: HEK293 cells transiently transfected with TLR7 and NFkB-luc; 6 hours incubation; lowest effective concentration
T1 construct: expressed in transfected cells; host or cells: HEK293
T1 sequence (Q9NYK1 27-1049): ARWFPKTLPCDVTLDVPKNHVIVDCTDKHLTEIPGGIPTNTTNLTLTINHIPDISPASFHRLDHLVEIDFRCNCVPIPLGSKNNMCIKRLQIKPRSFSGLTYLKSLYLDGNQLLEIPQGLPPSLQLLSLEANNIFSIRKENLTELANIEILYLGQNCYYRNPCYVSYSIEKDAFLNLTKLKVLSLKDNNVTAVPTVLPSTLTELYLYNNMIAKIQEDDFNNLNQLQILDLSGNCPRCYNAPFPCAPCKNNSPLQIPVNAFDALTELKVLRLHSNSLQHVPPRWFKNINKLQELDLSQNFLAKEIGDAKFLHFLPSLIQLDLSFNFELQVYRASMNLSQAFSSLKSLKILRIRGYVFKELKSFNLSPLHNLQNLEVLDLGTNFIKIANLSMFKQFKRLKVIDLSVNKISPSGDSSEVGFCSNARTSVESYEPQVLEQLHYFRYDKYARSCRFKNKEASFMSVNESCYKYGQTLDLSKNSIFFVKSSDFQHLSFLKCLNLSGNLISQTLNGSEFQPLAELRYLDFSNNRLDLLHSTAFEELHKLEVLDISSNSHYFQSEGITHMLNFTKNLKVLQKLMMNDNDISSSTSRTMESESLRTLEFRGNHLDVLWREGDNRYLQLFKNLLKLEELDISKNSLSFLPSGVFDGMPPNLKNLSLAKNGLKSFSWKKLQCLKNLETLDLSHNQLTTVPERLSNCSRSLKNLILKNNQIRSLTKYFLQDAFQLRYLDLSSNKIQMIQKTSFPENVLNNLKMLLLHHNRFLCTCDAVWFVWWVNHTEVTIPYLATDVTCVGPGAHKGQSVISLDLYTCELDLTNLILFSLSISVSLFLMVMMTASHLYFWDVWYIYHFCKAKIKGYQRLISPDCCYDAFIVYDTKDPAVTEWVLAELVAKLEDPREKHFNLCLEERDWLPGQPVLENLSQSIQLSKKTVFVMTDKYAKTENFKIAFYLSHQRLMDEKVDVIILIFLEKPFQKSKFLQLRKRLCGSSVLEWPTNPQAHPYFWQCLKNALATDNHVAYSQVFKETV
Description: (§1) Assessment of human TLR7 and human TLR8 activity. The ability of compounds to activate human TLR7 and/or TLR8 was assessed in a cellular reporter assay using HEK293 cells transiently transfected with a TLR7 or TLR8 expression vector and NFkB-luc reporter construct.
(§2) Briefly, HEK293 cells were grown in culture medium (DMEM supplemented with 10% FCS and 2 mM glutamine). For transfection of cells in 15 cm dishes, cells were detached with Trypsin-EDTA, transfected with a mix of CMV-TLR7 or TLR8 plasmid (1700 ng), NFkB-luc plasmid (850 ng) and a transfection reagent and incubated for 48 h at 37° C. in a humidified 5% CO2 atmosphere. Transfected cells were then washed in PBS, detached with Trypsin-EDTA and resuspended in medium to a density of 1.25×10^5 cells/mL. Forty microliters of cells were then dispensed into each well in 384-well plates, where 200 nL of compound in 100% DMSO was already present. Following 6 hours incubation at 37° C., 5% CO2, the luciferase activity was determined by adding 15 μL of Steady Lite Plus substrate (Perkin Elmer) to each well and readout performed on a ViewLux ultraHTS microplate imager (Perkin Elmer). Dose response curves were generated from measurements performed in quadruplicates. Lowest effective concentrations (LEC) values, defined as the concentration that induces an effect which is at least two fold above the standard deviation of the assay, were determined for each compound.

human TLR8 = molecular target: T2, human TLR8 (Homo sapiens, UniProt Q9NR97); assay: Human TLR8 cellular reporter assay (HEK293, NFkB-luc); type: cell-based; settings: HEK293 cells transiently transfected with TLR8 and NFkB-luc; 6 hours incubation; lowest effective concentration
T2 construct: expressed in transfected cells; host or cells: HEK293
T2 sequence (Q9NR97 27-1041): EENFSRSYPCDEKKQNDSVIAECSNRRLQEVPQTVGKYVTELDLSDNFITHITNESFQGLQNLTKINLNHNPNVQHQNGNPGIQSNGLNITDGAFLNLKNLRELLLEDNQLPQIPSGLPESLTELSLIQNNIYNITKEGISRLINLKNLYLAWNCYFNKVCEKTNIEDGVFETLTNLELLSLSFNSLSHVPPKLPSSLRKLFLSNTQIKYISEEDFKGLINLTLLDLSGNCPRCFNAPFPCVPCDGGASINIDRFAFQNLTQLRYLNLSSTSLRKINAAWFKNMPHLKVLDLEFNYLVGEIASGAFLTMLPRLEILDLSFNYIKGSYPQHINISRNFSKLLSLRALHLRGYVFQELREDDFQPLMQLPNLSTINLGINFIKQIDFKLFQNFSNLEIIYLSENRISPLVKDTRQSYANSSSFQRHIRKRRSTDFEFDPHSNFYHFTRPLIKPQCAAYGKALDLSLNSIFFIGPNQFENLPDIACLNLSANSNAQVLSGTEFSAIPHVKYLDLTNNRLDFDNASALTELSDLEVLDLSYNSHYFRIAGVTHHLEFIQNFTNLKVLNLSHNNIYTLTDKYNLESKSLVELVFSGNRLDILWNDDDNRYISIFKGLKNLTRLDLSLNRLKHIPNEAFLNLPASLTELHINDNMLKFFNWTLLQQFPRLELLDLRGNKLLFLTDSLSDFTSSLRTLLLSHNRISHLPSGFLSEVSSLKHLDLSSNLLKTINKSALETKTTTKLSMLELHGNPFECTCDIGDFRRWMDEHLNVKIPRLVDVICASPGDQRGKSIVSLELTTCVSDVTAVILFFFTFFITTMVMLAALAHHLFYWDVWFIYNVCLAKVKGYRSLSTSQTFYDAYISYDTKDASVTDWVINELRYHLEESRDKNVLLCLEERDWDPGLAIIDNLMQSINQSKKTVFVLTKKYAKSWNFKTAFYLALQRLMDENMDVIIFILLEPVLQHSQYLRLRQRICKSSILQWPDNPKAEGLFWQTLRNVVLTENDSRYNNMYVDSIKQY
Description: as §1, §2

| SMILES | Human TLR 7 (LEC) (human TLR7) [µM] | Human TLR 8 (LEC) (human TLR8) [µM] |
| --- | --- | --- |
| CCCCNc1nc(N)nc2c1OCCC2 [Compound 13, N^4-butyl-7,8-dihydro-6H-pyrano[3,2-d]pyrimidine-2,4-diamine] | 0.8 | 0.1 |
| CCCC[C@H](CO)Nc1nc(N)nc2c1CCOC2 [Compound 8, (2R)-2-[(2-amino-5,8-dihydro-6H-pyrano[3,4-d]pyrimidin-4-yl)amino]hexan-1-ol] | >100 | 1.4 |
| CCCCNc1nc(N)nc2c1CCOC2 [Compound 7, N^4-butyl-5,8-dihydro-6H-pyrano[3,4-d]pyrimidine-2,4-diamine] | 4.7 | 0.5 |
| CCCCNc1nc(N)nc2c1COCC2 [Compound 3, N^4-butyl-7,8-dihydro-5H-pyrano[4,3-d]pyrimidine-2,4-diamine] | 14.8 | 1.0 |
| CCCC[C@H](CO)Nc1nc(N)nc2c1OCCC2 [Compound 14, (2R)-2-[(2-amino-7,8-dihydro-6H-pyrano[3,2-d]pyrimidin-4-yl)amino]hexan-1-ol] | 32.5 | 0.1 |
| CCCC[C@H](CO)Nc1nc(N)nc2c1COCC2 [Compound 4, (2R)-2-[(2-amino-7,8-dihydro-5H-pyrano[4,3-d]pyrimidin-4-yl)amino]hexan-1-ol] | >100 | 1.3 |
